Three substances from patent EP0408294B1, “Use of an amylin antagonist for the manufacture of amedicament for the treatment of obesity and essential hypertension and related disorders” (AMYLIN PHARMACEUTICALS, INC., priority 1989, dated 1995) can be followed below.

One assay relates to normal rats. The assay can be described thus: intravenous amylin bolus in normal rats. Format: in vivo. How it is done:
Similar results have been obtained using amylin. We have also shown that amylin acutely produces diabetes (fasting hyperglycemia greater than 140 mg/dL) when administered intravenously. Eight normal rats were injected with a 100µg bolus of amylin (rat amylin, Bachem, Torrance, CA). An intravenous amylin bolus produced a profound hyperglycemia to diabetic levels within 15-30 minutes (usually around 200 mg/dL). This hyperglycemia persists for several hours. The hyperglycemia is partly accounted for by an increase in hepatic (endogenous) glucose output and partly by an increased impediment in peripheral glucose disposal. […] There is an increase in respiratory quotient (RQ) after amylin only when somatostatin is absent and insulin is allowed to increase in response to hyperglycemia. During somatostatin infusion (no endogenous insulin release), there is no change in RQ, indicating no change from lipid to carbohydrate fuel usage in response to amylin in the fasted animal.

For another assay, the system named is red skeletal muscle. The assay can be described thus: glycogen synthesis in amylin-treated skeletal muscle in vitro. Format: cell-based, rat. To be noted: insulin at the concentration necessary for half-maximal stimulation in non amylin-treated muscles. From the text:
(§1) In muscles treated with amylin, there was no response to insulin at the concentration necessary for half-maximal stimulation in non amylin-treated muscles. The effects of amylin were seen even in the presence of very low concentrations of insulin. Amylin produced a 30 percent reduction in the basal rate of glycogen synthesis in the presence of a basal concentration (1 µU/ml) of insulin. In marked contrast, amylin had no effect on either the basal or the insulin-stimulated rates of formation of CO₂ or triacyglycerol in isolated adipocytes. The effect of amylin treatment in muscle could only be overcome by increasing the concentration of insulin to the supra-physiological level of 1000 uU/ml.
(§2) • Figure 1 indicates the effect of amylin on the insulin-stimulated fate of glucose uptake in isolated incubated skeletal muscles of the rat. • Figure 2a indicates the effect of a CGRP infusion on glucose uptake in an anaesthetised rat under conditions of hyperinsulinaemic, euglycaemic glucose clamp, in which insulin alone was initially infused, following by insulin and CGRP. Similar results have been obtained with an infusion of amylin. • Figure 2b indicates the effect of an infusion of CGRP in an anaesthetised rat under conditions of hyperinsulinaemic, euglycaemic clamp, in which insulin and CGRP were initially infused together, followed by cessation of the CGRP infusion. […]

The test system of another assay is isolated adipocytes. Kind of assay: formation of CO₂ or triacyglycerol in isolated adipocytes. Format: cell-based.
Description: as §1
Amylin acts by reducing both basal and insulin-induced uptake of glucose into skeletal muscle, especially by reducing the rate of incorporation of glucose into glycogen, and also by reducing the rate of glucose uptake into muscle cells (Molina, M. et al., Science 1989; submitted). […] We have concluded that amylin causes the insulin-resistance in type 2 diabetes, probably in conjunction with CGRP and/or CGRP receptors.

The next assay deals with isolated soleus muscle. The assay can be described thus: amylin antagonist assay: incorporation of radiolabelled glucose into glycogen in isolated soleus muscle. Format: cell-based, rats. To be noted: 1000µU/mL insulin, 20nM amylin. How it is done: In a further experiment we have shown that the […] CGRP 8-37 also functions as a partial amylin antagonist. Insulin was obtained as Humulin-R, 100U/mL, recombinant human insulin (Eli Lilly, Indianapolis, IN). Amylin, obtained as rat amylin (Bachem, Torrance, CA) and 8-37 human CGRP (Bachem, Torrance CA) were also used. An antagonist assay was performed in vitro using the isolated soleus muscle from rats. It measured the rate of incorporation of radiolabelled glucose into muscle glycogen as follows: (1) under hormone-free conditions (zero insulin, zero amylin, zero hCGRP₈₋₃₇ [antagonist]); (2) under conditions of stimulation of glycogen formation with insulin (1000µU/mL insulin, zero amylin, zero antagonist); (3) under conditions where the near maximal stimulation of glycogen formation has been inhibited with amylin (1000µU/mL insulin, 20nM amylin, zero antagonist); and, (4) under conditions where the suppression of glycogen formation by amylin has been disinhibited by an antagonist to the amylin action (1000µU/mL insulin, 20nM amylin, range of concentrations of antagonist [0, 1nM, 10nM, 100nM, 300nM, 1µM, 10µM]) There were therefore […] (conditions 1,2,3 and […] of condition 4). […]

Another assay concerns anaesthetised rats. The assay can be described thus: hyperinsulinemic, euglycemic glucose clamp with CGRP infusion. Format: in vivo, rat. How it is done:
as §2, with “infusion. Similar results have been obtained with an infusion of amylin. • Figure 3 indicates the effect of CGRP on hepatic glucose output in anaesthetised rats, under conditions of hyperinsulinaemic, euglycaemic glucose clamp. Error bars give standard error of the mean. • Figure 4 indicates the effect of CGRP on insulin-stimulated glucose uptake in isolated BC3H-1 myocytes. • Figure 5 indicates the relationship between maximal insulin resistance, as measured by maximal insulin-stimulatable glucose disposal, and levels of serum CGRP-like immunoreactivity in the blood of a group of insulin-resistant type 2 diabetic human patients.” for “infusion.”

pEC50: −log10 of the molar value. Positions of bridges follow the written chain, without caps; N, C: chain ends. No end group written: not given here.

With “amylin: 37-amino acid peptide hormone from islet amyloid, Cys 2-7 disulfide bridge, amidated; rat amylin from Bachem used in tests (KCNTATCATQRLANFLVRSSNNLGPVLPPTNVGSNTY-NH2; disulfide 2-7; UniProt P12969 38-74, looked up)”, the persistence of hyperglycemia entry with normal rats (100µg intravenous bolus of rat amylin) is on record as “several hours”. For the same substance, the “hyperglycemia (glucose level reached)” value in the assay with normal rats (100µg intravenous bolus of rat amylin, eight normal rats) is recorded as “around 200 mg/dL”. In addition, the “respiratory quotient (RQ)” value in the assay with normal rats (after amylin, somatostatin absent, insulin allowed to increase in response to hyperglycemia) was “increase”; with normal rats (during somatostatin infusion (no endogenous insulin release), fasted animal), “no change”. Moreover, the plasma lactate entry in the assay on normal rats (after intravenous amylin bolus) is “transient increase”. In addition, the “response to insulin in muscles treated with amylin” value in the assay with red skeletal muscle is listed as “no response”. For the same substance, in the assay on isolated adipocytes, the “effect on basal or insulin-stimulated rates of formation of CO₂ or triacyglycerol” value is reported as “no effect”.

Turning to “CGRP₈₋₃₇: 8-37 human CGRP (Bachem), sub-peptide of CGRP, partial amylin antagonist”, in the assay with isolated soleus muscle (antagonist 1nM to 10µM, maximal increment), the “increment in the rate of glycogen synthesis from the amylin-inhibited level” value is listed as “about 115%”. For the same substance, in the assay on isolated soleus muscle (4-parameter logistic fit, read-out: EC₅₀ for disinhibition (half maximal concentration)), the pEC50 was 8.92.

CGRP: the “glucose infusion rate, new steady state” value in the assay with anaesthetised rats (Figure 2A protocol, CGRP 0.02 ug/kg/min from 80-150 minutes during constant insulin infusion 1.8 mU/kg/min) is listed as 18.0 ± 0.1 mg/kg/min. The “rise of glucose disposal rate (GDR) over basal” value in the assay on anaesthetised rats (Figure 2B protocol, 3H-glucose, last 20 mins of period, CGRP = CGRP plus insulin, insulin = insulin alone, basal GDR 11.2 ± 0.7) was found to be 7.4 ± 1.6 mg/kg/min.
